Source: US5739278A, “Compositions for protein tyrosine phosphatases” (University of Washington, priority 1995, dated 1998)

Columns and labels:
Assay in all cases: Phosphatase assay with ENDY(P)INASL as substrate
Format in all cases: biochemical
TC.PTP = biological target: T1, TC.PTP (Homo sapiens, UniProt P17706); conditions: TC.PTP
T1 construct: made in house; host or cells: Sf9 cells (baculovirus)
T1 sequence (P17706 1-415): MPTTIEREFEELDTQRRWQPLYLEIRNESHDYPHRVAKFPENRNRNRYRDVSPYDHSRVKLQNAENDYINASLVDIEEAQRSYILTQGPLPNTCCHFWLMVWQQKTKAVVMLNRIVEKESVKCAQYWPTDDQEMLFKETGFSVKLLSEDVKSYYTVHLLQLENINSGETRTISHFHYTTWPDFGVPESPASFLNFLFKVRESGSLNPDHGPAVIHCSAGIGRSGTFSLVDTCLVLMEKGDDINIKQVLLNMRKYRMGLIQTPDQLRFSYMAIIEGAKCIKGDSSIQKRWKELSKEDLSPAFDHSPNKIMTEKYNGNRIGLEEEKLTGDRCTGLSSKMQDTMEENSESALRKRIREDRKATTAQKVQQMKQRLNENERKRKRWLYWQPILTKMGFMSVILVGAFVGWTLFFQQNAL
Description: (§1) The tyrosine phosphatases TC.PTP, TCΔC11.PTP, and RPTPα were purified from infected Sf9 cells as described recently (Zander et al., Biochemistry 30: 6964-6970, 1991; Daum et al., J. Biol. Chem. 266: 12211-12215, 1991). The 37 kDa form of PTP1B and CD45 were purified from placenta and spleen, respectively (according to Tonks et al., J. Biol. Chem. 263: 6722-6730, 1988; Tonks et al., Biochemistry 27: 8695-8701, 1988).
(§2) Phosphatase assays with ENDY(P)INASL were performed in buffer M6. Aliquots of 30 μl or 60 μl containing the phosphopeptide, the phosphatase (-beads) and effectors were incubated for 10 minutes at 30° C. The reaction was stopped by adding 200 μl of a suspension of 10% activated, acid-washed Norit A charcoal (v/v) in 0.9N HCl, 0.1M pyrophosphate and 2 mM NaH2 PO4 (according to Streuli et al., Proc. Natl. Acad. Sci. USA 86: 8698-8702, 1989). The mixture was cleared by 10-minute centrifugation and the radioactivity of 150 μl of the supernate was determined. Assays with MBP and RCML were performed as described in Tonks et al., J. Biol. Chem. 263: 6722-6730, 1988. Protein concentration was determined with BSA as standard (Bradford, Anal. Biochem. 72: 248-254, 1976).

PTP1B = biological target: T2, PTP1B (Homo sapiens, UniProt P18031)
T2 construct: The 37 kDa form of PTP1B; from tissue; host or cells: placenta
T2 sequence (P18031 1-321 limits assumed): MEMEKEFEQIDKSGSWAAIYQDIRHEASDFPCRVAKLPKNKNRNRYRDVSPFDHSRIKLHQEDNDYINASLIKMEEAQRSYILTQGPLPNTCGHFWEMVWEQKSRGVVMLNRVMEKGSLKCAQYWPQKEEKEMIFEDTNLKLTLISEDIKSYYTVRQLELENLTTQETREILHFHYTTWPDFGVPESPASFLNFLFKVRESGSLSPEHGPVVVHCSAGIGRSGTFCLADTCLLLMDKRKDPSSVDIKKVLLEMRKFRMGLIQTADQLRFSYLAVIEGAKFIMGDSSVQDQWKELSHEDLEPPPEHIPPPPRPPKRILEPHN
Description: as §1, §2

CD45 = biological target: T3, CD45 (Homo sapiens, UniProt P08575)
T3 construct: CD45 were purified from placenta and spleen, respectively; from tissue; host or cells: spleen
T3 sequence (P08575 26-1306): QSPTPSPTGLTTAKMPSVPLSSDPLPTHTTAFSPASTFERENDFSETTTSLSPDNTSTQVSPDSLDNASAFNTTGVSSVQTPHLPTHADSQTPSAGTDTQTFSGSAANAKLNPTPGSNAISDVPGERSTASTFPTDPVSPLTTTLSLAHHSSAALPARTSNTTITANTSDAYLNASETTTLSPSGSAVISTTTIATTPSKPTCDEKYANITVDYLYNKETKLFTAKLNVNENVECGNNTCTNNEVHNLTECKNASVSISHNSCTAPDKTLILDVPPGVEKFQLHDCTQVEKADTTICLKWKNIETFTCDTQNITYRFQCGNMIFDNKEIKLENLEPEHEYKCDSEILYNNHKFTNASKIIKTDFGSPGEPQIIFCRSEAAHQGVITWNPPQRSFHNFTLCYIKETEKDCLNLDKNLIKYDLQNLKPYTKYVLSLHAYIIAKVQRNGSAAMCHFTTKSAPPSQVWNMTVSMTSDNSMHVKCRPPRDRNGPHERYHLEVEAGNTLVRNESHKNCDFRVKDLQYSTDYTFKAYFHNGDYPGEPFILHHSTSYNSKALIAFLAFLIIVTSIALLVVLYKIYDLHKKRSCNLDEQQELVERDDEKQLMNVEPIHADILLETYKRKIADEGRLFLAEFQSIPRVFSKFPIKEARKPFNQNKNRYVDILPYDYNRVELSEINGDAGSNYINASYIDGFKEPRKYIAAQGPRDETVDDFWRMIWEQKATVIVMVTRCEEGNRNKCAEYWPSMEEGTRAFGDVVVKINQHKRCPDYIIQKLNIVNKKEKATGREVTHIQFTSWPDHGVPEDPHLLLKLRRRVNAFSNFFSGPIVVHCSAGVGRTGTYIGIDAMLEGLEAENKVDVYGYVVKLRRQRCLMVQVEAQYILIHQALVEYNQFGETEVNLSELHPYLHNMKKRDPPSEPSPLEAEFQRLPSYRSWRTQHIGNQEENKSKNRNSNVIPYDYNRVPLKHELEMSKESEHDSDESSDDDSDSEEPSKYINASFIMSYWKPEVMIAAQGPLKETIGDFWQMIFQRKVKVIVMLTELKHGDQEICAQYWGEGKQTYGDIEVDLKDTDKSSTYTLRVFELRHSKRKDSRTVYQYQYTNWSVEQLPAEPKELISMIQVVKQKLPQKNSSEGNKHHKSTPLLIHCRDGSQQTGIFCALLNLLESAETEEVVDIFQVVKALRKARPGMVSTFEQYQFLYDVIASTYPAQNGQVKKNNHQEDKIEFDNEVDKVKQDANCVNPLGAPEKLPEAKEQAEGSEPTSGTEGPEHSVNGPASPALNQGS
Description: as §1, §2

TCΔC11.PTP = biological target: T4, TCΔC11.PTP (Homo sapiens, UniProt P17706)
T4 construct: both the wild type and truncated forms of the T-cell phosphatase; made in house; host or cells: Sf9 cells (baculovirus)
T4 sequence (P17706 1-317 limits assumed): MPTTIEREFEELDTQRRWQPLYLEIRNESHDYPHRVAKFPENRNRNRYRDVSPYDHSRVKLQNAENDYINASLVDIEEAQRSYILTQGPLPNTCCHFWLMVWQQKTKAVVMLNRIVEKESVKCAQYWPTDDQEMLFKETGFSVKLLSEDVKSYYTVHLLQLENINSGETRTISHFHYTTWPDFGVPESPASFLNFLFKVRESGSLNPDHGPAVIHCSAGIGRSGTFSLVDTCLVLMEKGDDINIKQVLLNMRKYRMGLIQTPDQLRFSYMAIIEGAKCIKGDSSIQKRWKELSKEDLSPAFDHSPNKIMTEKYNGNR
Description: as §1, §2

RPTPα = biological target: T5, RPTPα (Homo sapiens, UniProt P18433)
T5 construct: made in house; host or cells: Sf9 cells (baculovirus)
Description: as §1, §2

[1] = 10 min, effector 0.1 mM, read-out: Phosphatase activity in percent of the value obtained in the absence of effectors
[2] = 10 min, effector 2.0 mM, read-out: Phosphatase activity in percent of the value obtained in the absence of effectors
[3] = 10 min, effector 5.0 mM, read-out: Phosphatase activity in percent of the value obtained in the absence of effectors
[4] = 10 min, effector 0.5 mM, read-out: Phosphatase activity in percent of the value obtained in the absence of effectors
[5] = 10 min, effector 1.0 mM, read-out: Phosphatase activity in percent of the value obtained in the absence of effectors

T5 sequence (P18433 20-802): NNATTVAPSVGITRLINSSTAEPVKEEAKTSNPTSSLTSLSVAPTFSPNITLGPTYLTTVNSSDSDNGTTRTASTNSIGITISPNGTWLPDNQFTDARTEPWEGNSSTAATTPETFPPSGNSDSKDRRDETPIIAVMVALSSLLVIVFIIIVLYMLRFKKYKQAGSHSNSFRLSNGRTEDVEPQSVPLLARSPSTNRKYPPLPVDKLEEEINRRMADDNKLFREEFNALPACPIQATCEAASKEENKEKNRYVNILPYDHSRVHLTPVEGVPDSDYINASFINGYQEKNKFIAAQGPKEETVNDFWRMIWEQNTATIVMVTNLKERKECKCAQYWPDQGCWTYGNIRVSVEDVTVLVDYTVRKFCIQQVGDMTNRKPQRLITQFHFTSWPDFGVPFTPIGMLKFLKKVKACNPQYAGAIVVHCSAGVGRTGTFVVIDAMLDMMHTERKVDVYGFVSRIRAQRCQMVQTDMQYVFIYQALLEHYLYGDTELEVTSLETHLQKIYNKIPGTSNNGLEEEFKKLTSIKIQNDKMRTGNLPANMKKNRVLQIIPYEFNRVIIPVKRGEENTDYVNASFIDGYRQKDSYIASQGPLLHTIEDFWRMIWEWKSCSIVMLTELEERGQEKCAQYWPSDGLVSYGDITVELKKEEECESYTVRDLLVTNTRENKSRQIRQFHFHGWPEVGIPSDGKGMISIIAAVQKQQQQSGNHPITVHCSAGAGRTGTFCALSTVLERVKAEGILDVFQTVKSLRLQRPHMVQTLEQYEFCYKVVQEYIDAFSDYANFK

## [Zn+2] [Zn^2+]
TC.PTP; effector 0.01 mM
  Phosphatase activity in percent of the value obtained in the absence of effectors: 61%
TC.PTP; effector 0.1 mM
  Phosphatase activity in percent of the value obtained in the absence of effectors: 26%
TC.PTP; effector 1.0 mM
  Phosphatase activity in percent of the value obtained in the absence of effectors: 8%
PTP1B; effector 0.01 mM
  Phosphatase activity in percent of the value obtained in the absence of effectors: 65%
PTP1B; effector 0.1 mM
  Phosphatase activity in percent of the value obtained in the absence of effectors: 17%
PTP1B; effector 1.0 mM
  Phosphatase activity in percent of the value obtained in the absence of effectors: 6%
CD45; effector 0.01 mM
  Phosphatase activity in percent of the value obtained in the absence of effectors: 92%
CD45; effector 0.1 mM
  Phosphatase activity in percent of the value obtained in the absence of effectors: 53%
CD45; effector 1.0 mM
  Phosphatase activity in percent of the value obtained in the absence of effectors: 3%
TCΔC11.PTP; effector 0.01 mM
  Phosphatase activity in percent of the value obtained in the absence of effectors: 61%
TCΔC11.PTP; effector 0.1 mM
  Phosphatase activity in percent of the value obtained in the absence of effectors: 54%
TCΔC11.PTP; effector 1.0 mM
  Phosphatase activity in percent of the value obtained in the absence of effectors: 21%
RPTPα; effector 0.01 mM
  Phosphatase activity in percent of the value obtained in the absence of effectors: 99%
RPTPα; effector 0.1 mM
  Phosphatase activity in percent of the value obtained in the absence of effectors: 77%
RPTPα; effector 1.0 mM
  Phosphatase activity in percent of the value obtained in the absence of effectors: 4%

## NCCCCNCCCN [spermidine]
TC.PTP; [1]
  remaining activity at 100 µM: 92%
TC.PTP; [2]
  remaining activity at 2000 µM: 88%
TC.PTP; [3]
  remaining activity at 5000 µM: 91%
PTP1B; effector 0.1 mM
  Phosphatase activity in percent of the value obtained in the absence of effectors: 89%
PTP1B; effector 2.0 mM
  Phosphatase activity in percent of the value obtained in the absence of effectors: 94%
PTP1B; effector 5.0 mM
  Phosphatase activity in percent of the value obtained in the absence of effectors: 92%
CD45; [1]
  remaining activity at 100 µM: 103%
CD45; [2]
  remaining activity at 2000 µM: 92%
CD45; [3]
  remaining activity at 5000 µM: 83%
TCΔC11.PTP; [1]
  remaining activity at 100 µM: 67%
TCΔC11.PTP; [2]
  remaining activity at 2000 µM: 65%
TCΔC11.PTP; [3]
  remaining activity at 5000 µM: 66%
RPTPα; [1]
  remaining activity at 100 µM: 72%
RPTPα; [2]
  remaining activity at 2000 µM: 60%
RPTPα; [3]
  remaining activity at 5000 µM: 34%

## NCCCNCCCCNCCCN [spermine]
TC.PTP; [1]
  remaining activity at 100 µM: 119%
TC.PTP; [4]
  remaining activity at 500 µM: 109%
TC.PTP; [5]
  remaining activity at 1000 µM: 82%
PTP1B; effector 0.1 mM
  Phosphatase activity in percent of the value obtained in the absence of effectors: 87%
PTP1B; effector 0.5 mM
  Phosphatase activity in percent of the value obtained in the absence of effectors: 89%
PTP1B; effector 1.0 mM
  Phosphatase activity in percent of the value obtained in the absence of effectors: 82%
CD45; [1]
  remaining activity at 100 µM: 117%
CD45; [4]
  remaining activity at 500 µM: 100%
CD45; [5]
  remaining activity at 1000 µM: 85%
TCΔC11.PTP; [1]
  remaining activity at 100 µM: 81%
TCΔC11.PTP; [4]
  remaining activity at 500 µM: 60%
TCΔC11.PTP; [5]
  remaining activity at 1000 µM: 55%
RPTPα; [1]
  remaining activity at 100 µM: 89%
RPTPα; [4]
  remaining activity at 500 µM: 57%
RPTPα; [5]
  remaining activity at 1000 µM: 41%

## heparin
TC.PTP; effector 0.01 μM
  Phosphatase activity in percent of the value obtained in the absence of effectors: 8%
TC.PTP; effector 0.1 μM
  Phosphatase activity in percent of the value obtained in the absence of effectors: 1%
TC.PTP; effector 1.0 μM
  Phosphatase activity in percent of the value obtained in the absence of effectors: 0%
PTP1B; effector 0.01 μM
  Phosphatase activity in percent of the value obtained in the absence of effectors: 91%
PTP1B; effector 0.1 μM
  Phosphatase activity in percent of the value obtained in the absence of effectors: 0%
PTP1B; effector 1.0 μM
  Phosphatase activity in percent of the value obtained in the absence of effectors: 0%
CD45; effector 0.01 μM
  Phosphatase activity in percent of the value obtained in the absence of effectors: 8%
CD45; effector 0.1 μM
  Phosphatase activity in percent of the value obtained in the absence of effectors: 0%
CD45; effector 1.0 μM
  Phosphatase activity in percent of the value obtained in the absence of effectors: 0%
TCΔC11.PTP; effector 0.01 μM
  Phosphatase activity in percent of the value obtained in the absence of effectors: 88%
TCΔC11.PTP; effector 0.1 μM
  Phosphatase activity in percent of the value obtained in the absence of effectors: 4%
TCΔC11.PTP; effector 1.0 μM
  Phosphatase activity in percent of the value obtained in the absence of effectors: 0%
RPTPα; effector 0.01 μM
  Phosphatase activity in percent of the value obtained in the absence of effectors: 82%
RPTPα; effector 0.1 μM
  Phosphatase activity in percent of the value obtained in the absence of effectors: 40%
RPTPα; effector 1.0 μM
  Phosphatase activity in percent of the value obtained in the absence of effectors: 19%
